Test results reported in patent US7595074B2, “Polymeric antioxidants” (University of Massachusetts Lowell, priority 2002, dated 2009).
Where two headings read alike, the source gives them in different places.

Assays:
[1] = bleaching of a beta-carotene/linoleate model system (antioxidant activity); assay type: biochemical; parameters: % Antioxidant Activity of Monomer / % Antioxidant Activity: concentration or dose not given beside the values; details: for % Antioxidant Activity: compounds of each step of the Example 8 scheme, procedure of Food Chemistry 73:285-290 (2001)
Protocol: The antioxidant activity of monomers and enzymatically-prepared polymeric antioxidants was compared by measuring the bleaching of a beta-carotene system. In the model system, beta-carotene undergoes rapid discoloration in the absence of an antioxidant. The assay and measurements were conducted according to the procedure described in Jayaprakasha, G. K., et al. Food Chemistry 73: 285-290 (2001) and Hidalgo, M. E., et al. Phytochemistry 37: 1585-1587 (1994), the contents of which are incorporated herein by reference. Briefly, beta-carotene (0.2 mg), linoleic acid (20 mg), and 200 mg of Tween-40 (polyoxyethylene sorbitan monopalmitate) were dissolved in 0.5 mL of chloroform. The chloroform was removed under vacuum and the resulting mixture was immediately diluted with 10 mL of distilled water and mixed well for 1-2 minutes. The resulting emulsion was further made up to 50 mL with oxygenated water. Aliquots (4 mL) of the emulsion were mixed with 0.2 mL of test sample (monomer or polymer) in dimethylformamide (DMF), so that there were 100 ppm of monomer or polymer present in the aliquot. A control was prepared by mixing 0.2 mL of DMF with 4 mL of the above emulsion. The samples were incubated at 50° C. The absorbance of all samples at 470 nm was taken initially (t=0) and continued up to 180 minutes at 15 minute intervals. Antioxidant activity is calculated based on the formula: Antioxidant Activity=100(1−(Ao−At)/(A^1o−A^1t)), • Ao=absorbance of the test sample at zero time, • A^1o=absorbance of the control at zero time, • At=absorbance of the test sample at time t (180 min), and • A^1t=absorbance of the control at time t (180 min).
The antioxidant activity of several other antioxidant monomer/polymer pairs were determined by the procedure described in Example 3.
The antioxidant activity of compounds formed in each step of the scheme shown above were measured according to the procedure published in Food Chemistry 73:285-290 (2001).

[2] = thermogravimetric analysis (TGA); assay type: physicochemical; details: thermal stability, FIG. 4
[3] = quoted for comparison; cited from earlier work
[4] = oil stability index of cooking oil heated to frying temperature
Protocol: (§1) The oils were heated to frying temperature (190° C.) and their oil stability index was measured. The oil stability index (American Oil Chemists' Society Cd 126-92) measures the amount of time before the oil begins to rapidly oxidize. A greater length of time indicates an oil with a greater antioxidant capacity, which likely corresponds to a longer potential shelf life.

[5] = tested on: Sprague-Dawley albino rats; details: rat, in vivo
Protocol: A study was conducted based upon the standards of OECD Guidelines for Testing of Chemicals, OECD 423. Ten Sprague-Dawley albino rats were administered with 2000 mg/kg body weight poly(TBHQ) as a single dose via gastric gavage. After administration, the animals were returned to their cages and observed for signs of toxicity for up to 14 days. Body weights were determined prior to dosing and on the day of death or prior to terminal sacrifice. A second study was performed using three female rats with 500 mg/kg body weight of poly(TBHQ).

[6] = oil stability index of cooking oil heated to frying temperature; remark: listed apart in the source
Protocol: as §1

[7] = monomer, 100 ppm, 50° C., 180 min, Antioxidant Activity=100(1−(Ao−At)/(A1o−A1t))
[8] = monomer, procedure of Example 3

With `COc1ccc(O)cc1C(C)(C)C` [2-tert-butyl-4-hydroxyanisole] the “Monomer Activity” value [1, 7] was 44.24 and the “temperature up to which there was about 15% mass loss (TGA)” value [2] was “about 125 °C”.
For `[Cl-].[Na+]` [sodium chloride], the “oral LD50” value [3] is listed as “about 3000 mg/kg”.
With `CC(=O)Oc1ccc(O)cc1C(C)(C)C` [c, 4-acetyloxy-3-tert-butylphenol] the “% Antioxidant Activity” value [1] was 7.9%.
For `Oc1ccc(N=Nc2ccccc2)cc1` [4-azophenylphenol], the “Monomer Activity” value [1, 7] was 5.4 and the “% Antioxidant Activity of Monomer” value [1, 8] was 5.4%.
With “Poly(tert-butyl-hydroquinone) [Poly(TBHQ)]” the “oil stability index (time before the oil begins to rapidly oxidize)” value (“oil stability index” for short) [4] was 19.2 h, the “female rats that died prior to completion of the study” value [5] was “Three of the five” and the “gross necropsy of surviving animals” value [5] was “None of the surviving animals showed abnormal signs”. The “necropsy finding in animals that did not survive 14 days” value [5] was “the intestines were inflamed”, the overall toxicity [5] was “relatively low toxicity to rats” and the survival [5] was “survived the duration of the study”. The “oral LD50” value ([5]; po) was 500 to 2000 mg/kg and the “oil stability index” value [6] was 9.0 h.
For `CC(=O)Oc1ccc(OC(C)=O)c(C(C)(C)C)c1` [b], the “% Antioxidant Activity” value [1] was 2.45%.
For `CC(C)(C)c1cc(O)ccc1O` [TBHQ, tert-butyl-hydroquinone], the “oil stability index” value ([4]; Canola oil, 190° C., equal concentration of phenol moieties) was 10.8 h, the “% Antioxidant Activity” value [1] was 6.72% and the “oil stability index” value ([6]; Corn oil, 190° C., equal concentration of phenol moieties) was 6.6 h.
With `Oc1ccccc1` [phenol] the “% Antioxidant Activity of Monomer” value [1] was 2.1% and the “Monomer Activity” value [1] was 2.1.
In the case of `OCc1cccc(O)c1` [3-hydroxybenzyl alcohol], the “Monomer Activity” value [1, 7] is reported as 1.0 and the “% Antioxidant Activity of Monomer” value [1, 8] is reported as 1.0%.
